In assay [1] the target is T1, Adenosine receptor A2a (Homo sapiens, UniProt P29274). In words: Antagonist activity at human adenosine 2A receptor expressed in HEK293 cells co-expressing CRE-luciferase plasmid assessed as inhibition of NECA-stimulated luciferase expression preincubated with compound for 0.5 hrs followed by NECA stimulation and measured after 4 hrs by luciferase based CRE reporter assay. The assay is classed as functional, cell-based. For orientation: A reporter such as luciferase makes a cellular process visible.

The next assay is filed under the species Homo sapiens. Description: Selectivity ratio of IC50 for antagonist activity at human adenosine 2A receptor overexpressed in HEK293 cells to IC50 for antagonist activity at human adenosine 2B receptor overexpressed in HEK293 cells. Type of assay: cell-based.
Assay [2] is described as follows: Downregulation of NECA-induced TIM-3 expression in human Jurkat T cells at 0.1 to 10 uM incubated for 5 hrs in presence of PMA and ionomycin by q-PCR analysis. The settings on record: dose 0.1-10 µM. Type of assay: functional.
The target of assay [3] is T2, Adenosine receptor A2b (Homo sapiens, UniProt P29275).
T2 sequence (P29275 whole entry): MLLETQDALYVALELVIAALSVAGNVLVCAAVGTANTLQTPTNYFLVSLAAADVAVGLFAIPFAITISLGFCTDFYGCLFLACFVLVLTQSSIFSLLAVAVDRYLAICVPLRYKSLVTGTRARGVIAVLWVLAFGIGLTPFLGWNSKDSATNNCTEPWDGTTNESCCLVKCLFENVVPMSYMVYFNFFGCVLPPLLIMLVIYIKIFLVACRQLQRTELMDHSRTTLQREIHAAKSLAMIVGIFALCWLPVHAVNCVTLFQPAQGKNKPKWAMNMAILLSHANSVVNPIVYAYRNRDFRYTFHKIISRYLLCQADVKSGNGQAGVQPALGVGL
In words: Antagonist activity at human adenosine 2B receptor overexpressed in HEK293 cells preincubated for 0.5 hrs followed by NECA stimulation by GloSensor cAMP assay. The assay is classed as functional, cell-based.

Another assay concerns MC38-OVA. In words: Induction of T-cell mediated cell death in mouse MC38-OVA cells co-cultured with OT-1 CTL assessed as reversal of NECA-induced impairment in OT-I CTL mediated cell killing at 10 uM incubated for 48 hrs by calcein AM dye based fluorescence microscopic analysis. The assay is classed as functional.
Assay [4] has as its target T1, Adenosine receptor A2a. In words: Antagonist activity at human adenosine 2A receptor overexpressed in HEK293 cells preincubated for 0.5 hrs followed by NECA stimulation by Schild plot based GloSensor cAMP assay. The assay is classed as functional, cell-based. The settings on record: read-out: pA2 (converted). Background: Cyclic AMP is a second messenger, typically raised through Gs and lowered through Gi signalling.

Assay [5] is described as follows: Downregulation of NECA-induced PD-1 expression in human Jurkat T cells at 0.1 to 10 uM incubated for 5 hrs in presence of PMA and ionomycin by q-PCR analysis. The assay is classed as functional. The settings on record: dose 0.1-10 µM.
Assay [6] deals with T2, Adenosine receptor A2b. In words: Antagonist activity at human adenosine 2B receptor overexpressed in HEK293 cells preincubated for 0.5 hrs followed by NECA stimulation by Schild plot based GloSensor cAMP assay. Type of assay: functional, cell-based. The settings on record: read-out: pA2 (converted).
Assay [7] concerns the target T2, Adenosine receptor A2b. Description: Antagonist activity at human adenosine 2B receptor expressed in HEK293 cells co-expressing CRE-luciferase plasmid assessed as inhibition of NECA-stimulated luciferase expression preincubated with compound for 0.5 hrs followed by NECA stimulation and measured after 4 hrs by luciferase based CRE reporter assay. The assay is classed as functional, cell-based.

The target of assay [8] is T1, Adenosine receptor A2a. In words: Antagonist activity at human adenosine 2A receptor overexpressed in HEK293 cells preincubated for 0.5 hrs followed by NECA stimulation by GloSensor cAMP assay. The assay is classed as functional, cell-based.
The next assay has as its target T3, Adenosine receptor A1 (Homo sapiens, UniProt P30542).
T3 sequence (P30542 whole entry): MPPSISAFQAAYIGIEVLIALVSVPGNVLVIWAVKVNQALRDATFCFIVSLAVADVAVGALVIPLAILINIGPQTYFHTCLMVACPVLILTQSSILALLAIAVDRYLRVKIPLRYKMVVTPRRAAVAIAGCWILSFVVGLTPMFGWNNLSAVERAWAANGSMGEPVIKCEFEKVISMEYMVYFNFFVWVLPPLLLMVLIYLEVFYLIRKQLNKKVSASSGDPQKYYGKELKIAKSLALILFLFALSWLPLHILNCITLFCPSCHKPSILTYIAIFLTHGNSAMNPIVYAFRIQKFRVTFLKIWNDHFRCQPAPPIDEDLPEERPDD
Description: Antagonist activity at human Adenosine A1 receptor overexpressed in HEK293 cells preincubated for 0.5 hrs followed by NECA stimulation by GloSensor cAMP assay. The assay is classed as functional, cell-based.

A further assay concerns the target T4, Adenosine receptor A3 (Homo sapiens, UniProt P0DMS8).
T4 sequence (P0DMS8 whole entry): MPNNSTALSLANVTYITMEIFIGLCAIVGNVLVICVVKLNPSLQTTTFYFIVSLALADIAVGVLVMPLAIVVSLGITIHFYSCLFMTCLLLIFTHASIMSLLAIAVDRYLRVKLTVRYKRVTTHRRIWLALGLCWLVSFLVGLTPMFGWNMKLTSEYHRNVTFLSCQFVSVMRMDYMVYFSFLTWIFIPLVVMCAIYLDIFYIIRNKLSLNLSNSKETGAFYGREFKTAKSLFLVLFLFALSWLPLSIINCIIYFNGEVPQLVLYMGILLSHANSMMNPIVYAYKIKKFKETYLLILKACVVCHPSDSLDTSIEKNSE
In words: Antagonist activity at human Adenosine A3 receptor overexpressed in HEK293 cells preincubated for 0.5 hrs followed by NECA stimulation by GloSensor cAMP assay. Type of assay: functional, cell-based.

Active and inactive are the calls of the source. No cut-off for these calls is given here.

T1 sequence (P29274 whole entry): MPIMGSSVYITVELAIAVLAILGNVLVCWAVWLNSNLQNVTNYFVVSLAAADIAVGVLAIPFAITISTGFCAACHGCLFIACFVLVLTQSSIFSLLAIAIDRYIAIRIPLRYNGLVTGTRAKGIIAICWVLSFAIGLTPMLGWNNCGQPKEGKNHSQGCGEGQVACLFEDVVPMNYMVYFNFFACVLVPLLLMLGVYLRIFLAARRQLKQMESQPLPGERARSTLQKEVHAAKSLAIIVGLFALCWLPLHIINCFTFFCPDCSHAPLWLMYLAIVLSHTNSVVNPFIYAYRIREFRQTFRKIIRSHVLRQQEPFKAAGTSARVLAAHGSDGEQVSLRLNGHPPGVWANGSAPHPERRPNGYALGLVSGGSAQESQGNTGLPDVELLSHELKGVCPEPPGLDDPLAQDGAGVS

In general, IC50 refers to the concentration needed to halve the response being measured. Regarding `Cc1c(C#N)cccc1-c1cc(-c2cn(Cc3c[nH]c4ccc(C#N)cc34)nn2)nc(N)n1`, the IC50 on Adenosine receptor A2a [1] is 7.3 nM; against Adenosine receptor A2b [3], 6.4 nM; on Adenosine receptor A2b [7] it was 8.1 nM; at Adenosine receptor A2a [8], 11.2 nM; at Adenosine receptor A1, > 1000 nM; against Adenosine receptor A3, > 1000 nM. Further, the Ratio IC50 in the assay filed under Homo sapiens amounted to 1.8. Also, the Activity in assay [2] and in [5] was ~100% each time. For the same molecule, in the assay with MC38-OVA, the outcome was Active. Besides, the Kb was 1.62 nM at Adenosine receptor A2a [4] and 1.32 nM at Adenosine receptor A2b [6].
